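Cells were grown in 96-well plates and exposed to each compound for 48 hours at five concentrations; endpoints were interpolated linearly between bracketing concentrations, or set to the highest concentration if not reached. TGI: concentration producing complete growth inhibition.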
Columns and labels:
Test in all cases: DTP human tumour cell line panel, 48 h
[1] = system: 786-0 renal
[2] = system: COLO 205 colon
[3] = system: DU-145 prostate
[4] = system: HOP-92 NSCLC
[5] = system: K-562 leukemia
[6] = system: NCI-H460 lung
[7] = system: NCI-H522 lung
[8] = system: NCI/ADR-RES ovarian
[9] = system: OVCAR-4 ovarian
[10] = system: RPMI-8226 leukemia
[11] = system: SF-268 CNS
[12] = system: SF-539 CNS
[13] = system: SK-MEL-5 melanoma

Q: Which results are given for `O=C(ON=C1c2ccccc2C(Br)C(Br)c2ccccc21)c1cc([N+](=O)[O-])cc([N+](=O)[O-])c1` (centres undefined)?
A: TGI [1]: 28.7 µM; TGI [2]: 40 µM; TGI [3]: 66 µM; TGI [4]: 39.8 µM; TGI [5]: 45.3 µM; TGI [6]: 38.2 µM; TGI [7]: 14.3 µM; TGI [8]: 40.5 µM; TGI [9]: 48.2 µM; TGI [10]: 37 µM; TGI [11]: 35.7 µM; TGI [12]: 32.8 µM; TGI [13]: 30.7 µM

Q: Which TGI [1] does the source give for `CCOC(CN(C)C(=O)Nc1cccc2ccccc12)OCC` here?
A: Its TGI is over 10 µM.

Q: What about the TGI [2] of the same compound?
A: The TGI was over 10 µM.

Q: And the TGI [3]?
A: The TGI was over 10 µM.

Q: What about the TGI [4] of the same compound?
A: The TGI was over 10 µM.

Q: What about the TGI [5] of the same compound?
A: Its TGI is over 10 µM.

Q: And the TGI [6]?
A: The TGI was over 10 µM.

Q: What about the TGI [7] of the same compound?
A: Its TGI is over 10 µM.

Q: What about the TGI [8] of the same compound?
A: The TGI was over 10 µM.

Q: What about the TGI [9] of the same compound?
A: The TGI was over 10 µM.

Q: And the TGI [10]?
A: The TGI was over 10 µM.

Q: And the TGI [11]?
A: The TGI was over 10 µM.

Q: What about the TGI [12] of the same compound?
A: The TGI was over 10 µM.

Q: And the TGI [13]?
A: Its TGI is over 10 µM.

Q: Which results are given for `COC(=O)C1(CCC(C)=O)CCCCCC1=O` (centres undefined)?
A: TGI [1]: > 100 µM; TGI [2]: > 100 µM; TGI [3]: > 100 µM; TGI [4]: > 100 µM; TGI [5]: > 100 µM; TGI [6]: > 100 µM; TGI [7]: > 100 µM; TGI [8]: > 100 µM; TGI [9]: > 100 µM; TGI [10]: > 100 µM; TGI [11]: > 100 µM; TGI [12]: > 100 µM; TGI [13]: > 100 µM

Q: How did the TGI [1] turn out when `CC(C)Cn1cnc2c(NCC(C)O)nc3ccccc3c21` (centres undefined) was run?
A: The TGI was over 100 µM.

Q: What about the TGI [2] of the same compound?
A: Its TGI is over 100 µM.

Q: And the TGI [3]?
A: Its TGI is over 100 µM.

Q: And the TGI [4]?
A: The TGI was over 100 µM.

Q: And the TGI [5]?
A: Its TGI is over 100 µM.

Q: What about the TGI [6] of the same compound?
A: The TGI was over 100 µM.

Q: What about the TGI [7] of the same compound?
A: Its TGI is over 100 µM.

Q: And the TGI [8]?
A: The TGI was over 100 µM.

Q: And the TGI [9]?
A: Its TGI is over 100 µM.

Q: What about the TGI [10] of the same compound?
A: The TGI was over 100 µM.

Q: And the TGI [11]?
A: Its TGI is over 100 µM.

Q: And the TGI [12]?
A: The TGI was over 100 µM.

Q: And the TGI [13]?
A: The TGI was over 100 µM.

Q: What does the source list for `NC(N)=N/N=C/c1c(-c2ccc(Cl)cc2)nc2sccn12`?
A: TGI [1]: 2.99 µM; TGI [2]: 2.87 µM; TGI [3]: 13.1 µM; TGI [4]: 5.67 µM; TGI [5]: 14.3 µM; TGI [6]: 3.53 µM; TGI [7]: 3.19 µM; TGI [8]: 23.3 µM; TGI [9]: 4.24 µM; TGI [10]: 7.04 µM; TGI [11]: 3.72 µM; TGI [12]: 3.36 µM; TGI [13]: 3.19 µM

Q: With `[N-]=[N+]=Nc1ccccc1C(=O)N1C(=O)c2ccccc2C(=O)N(C(=O)c2ccccc2N=[N+]=[N-])c2ccccc21` as the compound, how does the TGI [1] read?
A: Its TGI is over 100 µM.

Q: And the TGI [2]?
A: Its TGI is over 100 µM.

Q: What about the TGI [3] of the same compound?
A: Its TGI is over 100 µM.

Q: What about the TGI [4] of the same compound?
A: The TGI was 83.5 µM.

Q: What about the TGI [5] of the same compound?
A: The TGI was over 100 µM.

Q: And the TGI [6]?
A: The TGI was over 100 µM.

Q: What about the TGI [7] of the same compound?
A: The TGI was over 100 µM.

Q: And the TGI [8]?
A: Its TGI is over 100 µM.

Q: And the TGI [9]?
A: The TGI was over 100 µM.

Q: What about the TGI [10] of the same compound?
A: The TGI was over 100 µM.

Q: And the TGI [11]?
A: Its TGI is over 100 µM.

Q: And the TGI [12]?
A: The TGI was over 100 µM.

Q: What about the TGI [13] of the same compound?
A: Its TGI is over 100 µM.

Q: `CCOC(=O)/C(C#N)=C\c1ccc(N(CCC(=O)O)CCC(=O)O)c(I)c1` was tested. Which TGI [1] did it give?
A: The TGI was over 10 µM.

Q: What about the TGI [2] of the same compound?
A: Its TGI is over 10 µM.

Q: And the TGI [3]?
A: The TGI was over 10 µM.

Q: And the TGI [4]?
A: The TGI was over 10 µM.

Q: And the TGI [5]?
A: Its TGI is over 10 µM.

Q: And the TGI [6]?
A: Its TGI is over 10 µM.

Q: And the TGI [7]?
A: The TGI was over 10 µM.

Q: And the TGI [8]?
A: The TGI was over 10 µM.

Q: What about the TGI [9] of the same compound?
A: Its TGI is over 10 µM.

Q: And the TGI [10]?
A: Its TGI is over 10 µM.

Q: What about the TGI [11] of the same compound?
A: Its TGI is over 10 µM.

Q: And the TGI [12]?
A: Its TGI is over 10 µM.

Q: And the TGI [13]?
A: The TGI was over 10 µM.

Q: Which results are given for `O=C1C(Cl)C2(CC(/C=C/c3ccccc3Cl)=NN2c2cccc(S(=O)(=O)O)c2)N1c1nc2ccccc2s1` (centres undefined)?
A: TGI [1]: 62.3 µM; TGI [2]: > 100 µM; TGI [3]: 87.5 µM; TGI [4]: > 100 µM; TGI [5]: > 100 µM; TGI [6]: > 100 µM; TGI [7]: 26.9 µM; TGI [8]: > 100 µM; TGI [9]: > 100 µM; TGI [10]: 89.9 µM; TGI [11]: > 100 µM; TGI [12]: 37.6 µM; TGI [13]: > 100 µM

Source: PubChem BioAssay (NCI)
